The values that follow come from patent US7259161B2, “Compositions useful as inhibitors of JAK and other protein kinases” (Vertex Pharmaceuticals Incorporated, priority 2002, dated 2007).

Some results are limits rather than exact numbers.

In one experiment the target is CDK-2/Cyclin A (Homo sapiens, UniProt P24941). Briefly: CDK2 inhibition assay (coupled enzyme assay). The experiment is classed as biochemical. The following applies: 100 μM ATP, 25 nM CDK-2/Cyclin A. The procedure: Compounds were screened for their ability to inhibit CDK-2/Cyclin A using a standard coupled enzyme assay (Fox et al (1998) Protein Sci 7, 2249). Reactions were carried out in 100 mM HEPES pH 7.5, 10 mM MgCl2, 25 mM NaCl, 1 mM DTT and 1.5% DMSO. Final substrate concentrations in the assay were 100 μM ATP (Sigma chemicals) and 100 μM peptide (American Peptide, Sunnyvale, Calif.). Assays were carried out at 30° C. and 25 nM CDK-2/Cyclin A. Final concentrations of the components of the coupled enzyme system were 2.5 mM phosphoenolpyruvate, 350 μM NADH, 30 μg/ml pyruvate kinase and 10 μg/ml lactate dehydrogenase.
An assay stock buffer solution was prepared containing all of the reagents listed above, with the exception of CDK-2/Cyclin A, DTT and the test compound of interest. 56 μl of the test reaction was placed in a 384 well plate followed by addition of 1 μl of 2 mM DMSO stock containing the test compound (final compound concentration 30 μM). The plate was preincubated for ˜10 minutes at 30° C. and the reaction initiated by addition of 10 μl of enzyme (final concentration 25 nM). Rates of reaction were obtained using a BioRad Ultramark plate reader (Hercules, Calif.) over a 5 minute read time at 30° C. Compounds showing >50% inhibition versus standard wells containing DMSO, but no compound, were titrated and IC50's determined using a similar protocol.

A further experiment concerns the target T1, ZAP-70 (Homo sapiens, UniProt P43403).
T1 sequence (P43403 1-619): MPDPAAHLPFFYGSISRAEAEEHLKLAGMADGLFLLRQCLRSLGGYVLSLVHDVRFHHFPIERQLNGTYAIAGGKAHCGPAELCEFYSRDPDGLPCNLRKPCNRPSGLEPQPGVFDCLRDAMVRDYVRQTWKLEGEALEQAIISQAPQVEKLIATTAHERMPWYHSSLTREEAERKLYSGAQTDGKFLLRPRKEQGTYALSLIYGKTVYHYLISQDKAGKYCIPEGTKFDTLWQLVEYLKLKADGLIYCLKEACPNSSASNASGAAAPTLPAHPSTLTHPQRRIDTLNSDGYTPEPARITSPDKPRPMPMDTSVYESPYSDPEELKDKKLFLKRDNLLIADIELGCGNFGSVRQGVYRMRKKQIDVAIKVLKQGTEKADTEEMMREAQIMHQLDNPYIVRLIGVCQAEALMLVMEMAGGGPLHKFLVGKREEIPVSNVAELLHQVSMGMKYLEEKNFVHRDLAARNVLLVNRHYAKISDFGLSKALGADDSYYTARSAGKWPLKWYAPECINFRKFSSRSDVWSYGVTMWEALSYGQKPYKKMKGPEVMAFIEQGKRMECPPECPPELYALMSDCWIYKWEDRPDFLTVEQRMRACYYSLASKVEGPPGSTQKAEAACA
Briefly: ZAP-70 inhibition assay (coupled enzyme assay). The following applies: 100 μM ATP, 60 nM ZAP-70. The experiment is classed as biochemical. The procedure:
Compounds were screened for their ability to inhibit ZAP-70 using a standard coupled enzyme assay (Fox et al., Protein Sci., (1998) 7, 2249). Assays were carried out in a mixture of 100 mM HEPES 7.5, 10 mM MgCl2, 25 mM NaCl, 2 mM DTT and 3% DMSO. Final substrate concentrations in the assay were 100 μM ATP (Sigma Chemicals) and 20 μM peptide (poly-4EY, Sigma Chemicals). Assays were carried out at 30° C. and 60 nM ZAP-70. Final concentrations of the components of the coupled enzyme system were 2.5 mM phosphoenolpyruvate, 300 μM NADH, 30 μg/ml pyruvate kinase and 10 μg/ml lactate dehydrogenase.
An assay stock buffer solution was prepared containing all of the reagents listed above, with the exception of ZAP-70 and the test compound of interest. 55 μl of the stock solution was placed in a 96 well plate followed by addition of 2 μl of DMSO stock containing serial dilutions of the test compound (typically starting from a final concentration of 15 μM). […] Initial reaction rates were determined with a Molecular Devices SpectraMax Plus plate reader over a 15 minute time course. IC50 and Ki data were calculated from non-linear regression analysis using the Prism software package (GraphPad Prism version 3.0a for Macintosh, GraphPad Software, San Diego Calif., USA).

By Ki is commonly meant the dissociation constant of the complex between target and ligand, obtained from inhibition or displacement. Higher therefore signals a looser hold on the target. In the case of `NS(=O)(=O)c1ccc(Nc2nccc(-c3ccc4c(c3)NC(=O)CO4)n2)cc1` [IVa-23], the Ki on CDK-2/Cyclin A and on ZAP-70 was less than 1000 nM in each case.
Turning to `CN1C(=O)COc2ccc(-c3ccnc(Nc4ccc(S(N)(=O)=O)cc4)n3)cc21` [IVa-24], the Ki on CDK-2/Cyclin A and on ZAP-70 was less than 1000 nM in each case.
